Results: patent publication US20040121946A9, “Inducing cellular immune responses to her2/neu using peptide and nucleic acid compositions” (priority 2002, published 2004)

How the values were obtained:
[1] = target: HLA-A*0301 (Homo sapiens, UniProt P04439); assay type: binding; conditions: Table XXIII, HLA-A3 supermotif-bearing peptides
[2] = target: HLA-A*3101 (Homo sapiens, UniProt P04439, A270S/D185E/E176V/E277Q/F33T/G231S/G80R/H175R/I121M/I218V/I322F/K168Q/L300P/L318F/M331R/P217A/Q94H/R138Q/T323A/T345S/T97I/V358M); assay type: binding; conditions: Table XXIII, HLA-A3 supermotif-bearing peptides
[3] = target: HLA-A*1101 (Homo sapiens, UniProt P04439, A114D/D185E/E176A/F33Y/L180Q/S129P/T187R); assay type: binding; conditions: Table XXIII, HLA-A3 supermotif-bearing peptides
[4] = target: HLA-A*6801 (Homo sapiens, UniProt P04439, A269V/D185E/E176V/E277Q/E87N/F33Y/G231S/I121M/I166T/I218V/L180W/L300P/L318F/N151K/P208A/P217A/Q86R/R169H/T345S); assay type: binding; conditions: Table XXIII, HLA-A3 supermotif-bearing peptides
[5] = system: HLA-DR molecules (DR1, DR4w4, DR7, DRB5*0101, DRB1*1501, DRB1*1101, DRB1*0802, DRB1*1302); experiment: DR supertype cross-reactive binding; set-up: species or system human; conditions: for No. of DR Alleles Crossbound: Table XXXI; for DR147 Binding / DR147 Cross-binding: number of DR1, DR4w4, DR7 bound; for DR147 Binding: Table XXIX; for DR147 Cross-binding: Table XXVIII; for Broad Binding (5/8): number of the 8 DR alleles bound
[6] = target: DRB1*0101 (DR1) (Homo sapiens, UniProt P01903+P01911, A100R/D57E/F55L/F60I/F76Y/I96L/L162R/M171V/P40L/Q125E/R42F/V115G/Y59C); experiment: HLA class II peptide binding assay, purified HLA; conditions: Table XIX, DR supermotif peptides; unit not given
[7] = target: DRB1*0701 (DR7) (Homo sapiens, UniProt P01903+P01911, A100R/A102G/A103Q/D57E/D86V/E43K/F76Y/K127E/L162R/M171V/P40G/Q125H/Q99D/R33Q/R42Y/R54Q/S133A/S66F/T210M/V115G/Y107V/Y59L/Y89S); experiment: HLA class II peptide binding assay, purified HLA; conditions: Table XIX, DR supermotif peptides; unit not given
[8] = target: DRB5*0101 (DR2w2β2) (Homo sapiens, UniProt P01903+Q30154); experiment: HLA class II peptide binding assay, purified HLA; conditions: for DR2w2B2 binding data: Table XIX, DR supermotif peptides, unit not given; for IC50: Table XXIX, read-out: DR2w2β2 nM
[9] = target: DRB1*1101 (DR5w11) (Homo sapiens, UniProt P01903+P01911, A100R/A169T/A87E/I96F/K41T/L162R/M171V/P40S/Q125H/Q178H/Q39Y/Q99D/R42S/S66Y/T262R/V115G/W38E); experiment: HLA class II peptide binding assay, purified HLA; conditions: for DR5w11 binding data: Table XIX, DR supermotif peptides, unit not given
[10] = target: DRB1*1302 (DR6w19) (Homo sapiens, UniProt P01903+P01911, A100E/A169T/K41T/L162R/M171V/P40S/Q125H/Q178H/Q39Y/Q99D/R42S/S66N/T262R/V115G/W38E/Y61H); experiment: HLA class II peptide binding assay, purified HLA; conditions: for DR6w19 binding data: Table XIX, DR supermotif peptides, unit not given
[11] = target: DRB1*1501 (DR2w2β1) (Homo sapiens, UniProt P01903+P01911); experiment: HLA class II peptide binding assay, purified HLA; conditions: for DR2wB1 binding data: Table XIX, DR supermotif peptides, unit not given; for IC50: Table XXIX, read-out: DR2w2β1 nM
[12] = target: DRB1*0301 (DR3) (Homo sapiens, UniProt P01903+P01911, A100K/A102G/A103R/A169T/F55Y/I96L/K41T/L162R/M171V/P40S/Q125H/Q178H/Q39Y/R42S/S66N/T106N/T262R/W38E/Y61H); experiment: HLA class II peptide binding assay, purified HLA; conditions: Table XIX, DR supermotif peptides; unit not given
[13] = target: DRB1*0802 (DR8w2) (Homo sapiens, UniProt P01903+P01911, A100R/A103L/A169T/F76Y/H45Y/I96F/K41T/L162R/M171V/P40S/Q125H/Q178H/Q39Y/Q99D/R218S/R42G/S66Y/V115G/W38E); experiment: HLA class II peptide binding assay, purified HLA; conditions: for DR8w2 binding data: Table XIX, DR supermotif peptides, unit not given
[14] = target: DRB1*0401 (DR4w4) (Homo sapiens, UniProt P01903+P01911, A100K/A169T/F76Y/I96L/K127E/L162R/M171V/N62H/P40V/Q125Y/R42H/S133A/S149N/S66Y/V115G/V209L/W38E); experiment: HLA class II peptide binding assay, purified HLA; conditions: Table XIX, DR supermotif peptides; unit not given

Structure (SMILES) | No. of DR Alleles Crossbound [5] | DR147 Binding [5] | DR147 Cross-binding [5] | Broad Binding (5/8) [5] | DR1 binding data [6] | DR7 binding data [7] | DR2w2B2 binding data [8] | DR5w11 binding data [9] | DR6w19 binding data [10] | DR2wB1 binding data [11] | IC50 [11] | DR3 binding data [12] | DR8w2 binding data [13] | DR4w4 binding data [14] | also measured
CC(C)[C@H](NC(=O)[C@@H](NC(=O)[C@@H](N)CCCNC(=N)N)[C@@H](C)O)C(=O)N[C@@H](CS)C(=O)N[C@@H](C)C(=O)NCC(=O)NCC(=O)N[C@@H](CS)C(=O)N[C@@H](C)C(=O)N[C@@H](CCCNC(=N)N)C(=O)O [Her2/neu.217] |  |  |  |  |  |  |  |  |  |  |  |  |  |  | IC50 [1]: 1620 nM; IC50 [2]: 40 nM; IC50 [3]: 462 nM; IC50 [4]: 320 nM
CSCC[C@H](NC(=O)[C@@H](NC(=O)[C@H](Cc1ccc(O)cc1)NC(=O)[C@H](C)NC(=O)[C@H](CCC(=O)O)NC(=O)[C@@H](N)CC(=O)O)C(C)C)C(=O)N[C@@H](C)C(=O)NCC(=O)N[C@H](C(=O)NCC(=O)N[C@@H](CO)C(=O)N1CCC[C@H]1C(=O)N[C@@H](Cc1ccc(O)cc1)C(=O)N[C@H](C(=O)N[C@@H](CO)C(=O)O)C(C)C)C(C)C | 5 | 3 | 3 | 5 | 0.0500 | 0.2000 | 0.0240 | 0.0027 | 0.0020 | 0.0029 | 3140 nM | 0.0010 | 0.0570 | 0.2300 | IC50 [8]: 833 nM; IC50 ([10]; Table XXIX, read-out: DR6w19 nM): 1750 nM; IC50 ([13]; Table XXIX, read-out: DR8w2 nM): 860 nM
CC[C@H](C)[C@H](NC(=O)[C@H](CCCCN)NC(=O)[C@H](CCCCN)NC(=O)[C@@H](N)CS)C(=O)N[C@@H](Cc1ccccc1)C(=O)NCC(=O)N[C@@H](CO)C(=O)N[C@@H](CC(C)C)C(=O)N[C@@H](C)C(=O)N[C@@H](Cc1ccccc1)C(=O)N[C@@H](CC(C)C)C(=O)N1CCC[C@H]1C(=O)N[C@@H](CCC(=O)O)C(=O)N[C@@H](CO)C(=O)N[C@@H](Cc1ccccc1)C(=O)O |  | 2 | 2 | 2 | 0.2400 | 0.0270 | 0.0016 | −0.0005 | 0.0034 | 0.0070 | 1300 nM | 0.0010 | −0.0004 | −0.0025 | 
CC[C@H](C)[C@H](NC(=O)CNC(=O)[C@H](CC(=O)O)NC(=O)[C@H](Cc1ccc(O)cc1)NC(=O)[C@@H]1CCCN1C(=O)[C@H](CCCCN)NC(=O)[C@H](C)NC(=O)CNC(=O)[C@H](Cc1ccccc1)NC(=O)[C@@H](NC(=O)[C@H](CCSC)NC(=O)[C@H](CC(C)C)NC(=O)[C@H](CCC(=O)O)NC(=O)[C@H](Cc1c[nH]c2ccccc12)NC(=O)[C@@H](N)C(C)C)[C@@H](C)O)C(=O)O | 5 | 3 | 3 | 5 | 0.0870 | 0.0370 | 0.1000 | 0.0054 | 0.0004 | 0.0990 | 92 nM | 0.0010 | 0.0089 | 0.0550 | IC50 [8]: 200 nM; IC50 ([9]; Table XXIX, read-out: DR5w11 nM): 3700 nM
CC[C@H](C)[C@H](NC(=O)CNC(=O)[C@H](Cc1ccccc1)NC(=O)[C@@H](NC(=O)[C@@H](NC(=O)CNC(=O)[C@H](CC(C)C)NC(=O)[C@@H](N)C(C)C)C(C)C)C(C)C)C(=O)N[C@@H](CC(C)C)C(=O)N[C@H](C(=O)N[C@@H](CCCCN)C(=O)N[C@@H](CCCNC(=N)N)C(=O)N[C@@H](CCCNC(=N)N)C(=O)N[C@@H](CCC(N)=O)C(=O)N[C@@H](CCC(N)=O)C(=O)O)[C@@H](C)CC | 7 | 2 | 2 | 7 | 0.0700 | 0.0320 | 0.0620 | 0.4700 | 0.0150 | 0.0110 |  | 0.0021 | 0.6400 | 0.0029 | 
CC[C@H](C)[C@H](NC(=O)[C@H](CCSC)NC(=O)[C@H](Cc1ccc(O)cc1)NC(=O)[C@@H](NC(=O)[C@H](CC(=O)O)NC(=O)[C@@H](NC(=O)[C@@H](NC(=O)[C@H](CS)NC(=O)[C@@H](NC(=O)[C@@H]1CCCN1C(=O)[C@@H]1CCCN1C(=O)[C@@H](N)CCC(N)=O)[C@@H](C)CC)[C@@H](C)O)[C@@H](C)CC)C(C)C)C(=O)N[C@@H](CCSC)C(=O)N[C@H](C(=O)N[C@@H](CCCCN)C(=O)O)C(C)C |  | 2 | 2 | 3 | 0.0670 | 0.1000 | 0.0027 | 0.0046 | 0.0013 | 0.0540 |  | 0.0976 | 0.0051 | 0.0060 | 
CC[C@H](C)[C@H](NC(=O)CNC(=O)[C@H](CC(C)C)NC(=O)[C@H](CC(C)C)NC(=O)[C@H](CCCNC(=N)N)NC(=O)[C@@H](N)CO)C(=O)N[C@@H](CS)C(=O)N[C@@H](CC(C)C)C(=O)N[C@H](C(=O)N[C@@H](CO)C(=O)N[C@H](C(=O)N[C@H](C(=O)N[C@@H](CCC(N)=O)C(=O)N[C@@H](CC(C)C)C(=O)N[C@H](C(=O)O)C(C)C)C(C)C)[C@@H](C)O)[C@@H](C)O | 5 | 3 | 3 | 5 | 0.3500 | 0.5600 | −0.0007 | 0.0140 | 0.3400 | 0.0220 |  | 0.0062 | 0.0009 | 0.1200 | 
